Consider 27 molecules from US7342027B2 (Yuhan Corporation, priority 2002, dated 2008).

Counter-ions that a name gives are not always drawn.

This assay deals with T1, Recombinant human cathepsin K (Homo sapiens, UniProt P43235).
T1 construct: made in house
T1 sequence (P43235 115-329): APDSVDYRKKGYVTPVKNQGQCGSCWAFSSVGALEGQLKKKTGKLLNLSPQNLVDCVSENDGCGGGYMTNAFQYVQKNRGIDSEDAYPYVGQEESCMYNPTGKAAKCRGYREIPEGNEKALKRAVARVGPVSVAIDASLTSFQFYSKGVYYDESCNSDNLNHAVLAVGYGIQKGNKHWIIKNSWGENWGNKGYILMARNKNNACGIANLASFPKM
In words: Inhibition of cathepsin K activity (Z-Phe-Arg-AMC fluorescence assay). Particulars: 25 uM Z-Phe-Arg-AMC, pH 5.5, 1 hour at 37° C. The assay is classed as biochemical. How it is done: Test 1: Inhibition of Cathepsin K Activity
Recombinant human cathepsin K was prepared in accordance with Biol, Pharm. Bull, 19(8), 1026-1031 (1996) and J. Biol. Chem. 271, 2126-2132 (1996). Stock solutions of 2.5 mM Z-Phe-Arg-AMC (BACHEM, 1-1160) and all inhibitors were prepared in dimethyl sulfoxide. In vitro assays for cathepsin K were conducted with 25 uM Z-Phe-Arg-AMC as a substrate at pH 5.5 in 100 mM Na acetate buffer containing 20 mM cysteine and 5 mM EDTA in the presence of 2% final concentration of DMSO. Reaction was initiated by the addition of enzyme to samples, which were then incubated for 1 hour at 37° C. The fluorescence was monitored at 460 nm (excitation wavelength 360 nm) using fluorescence plate reader.
The concentrations of the test compounds, which inhibit 50% of cathepsin K activity, are represented as IC50 in Table 1.
One may read the IC50 as the concentration that inhibits the measured activity by half. On to `CS(=O)(=O)c1ccccc1N1CCC(NC(=O)C2(NC(=O)c3ccc(OCCN4CCCC4)cc3)CCCCC2)C(=O)C1` (stereo not drawn) [Example 159, 4-[N-[1-[N-(4-(2-pyrrolidinethoxy)benzoyl)amino]cyclohexanecarbonyl]amino]-1-(2-methanesulfonylphenyl)piperidin-3-one hydrochloride], for which the IC50 was 3.25 nM.
Next, `O=Cc1ccccc1N1CCC(NC(=O)C2(NC(=O)c3cc4ccccc4o3)CCCCC2)C(=O)C1` (stereo not drawn) [Example 15, 4-[N-[1-[N-(benzofuran-2-ylcarbonyl)amino]cyclohexanecarbonyl]amino]-1-(2-formylphenyl)piperidin-3-one]: 1.45 nM; `CS(=O)(=O)c1ccc(F)cc1N1CCC(NC(=O)C2(NC(=O)c3ccc(Cl)s3)CCCCC2)C(=O)C1` (stereo not drawn) [Example 117, 4-[N-[1-[N-(5-chloro-thiophen-2-ylcarbonyl)amino]cyclohexanecarbonyl]amino]-1-(5-fluoro-2-methanesulfonylphenyl)piperidin-3-one]: 2.13 nM.
Next, `Cc1ccsc1C(=O)NC1(C(=O)NC2CCN(c3ccccc3S(C)(=O)=O)CC2=O)CCCCC1` (stereo not drawn) [Example 121, 4-[N-[1-[N-(3-methyl-thiophen-2-ylcarbonyl)amino]cyclohexanecarbonyl]amino]-1-(2-methanesulfonylphenyl)piperidin-3-one]: 7.73 nM; `O=C(NC1(C(=O)NC2CCN(c3ccc([N+](=O)[O-])cc3)CC2=O)CCCCC1)c1cc2ccccc2o1` (stereo not drawn) [Example 16, 4-[N-[1-[N-(benzofuran-2-ylcarbonyl)amino]cyclohexanecarbonyl]amino]-1-(4-nitrophenyl)piperidin-3-one]: 10.8 nM; `O=C(NC1(C(=O)NC2CCN(c3cc(C(F)(F)F)ccc3Cl)CC2=O)CCCCC1)c1cc2ccccc2s1` (stereo not drawn) [Example 130, 4-[N-[1-[N-(benzothiophen-2-ylcarbonyl)amino]cyclohexanecarbonyl]amino]-1-(2-chloro-5-trifluoromethylphenyl)piperidin-3-one]: 1.2 nM.
As for `O=C(NC1(C(=O)NC2CCN(c3ccccc3-c3nnn[nH]3)CC2=O)CCCCC1)c1cc2ccccc2o1` (stereo not drawn) [Example 67, 4-[N-[1-[N-(benzofuran-2-ylcarbonyl)amino]cyclohexanecarbonyl]amino]-1-[2-(1H-tetrazol-5-yl)phenyl]piperidin-3-one], the IC50 came to 4.77 nM.
As for `Cc1occc1C(=O)NC1(C(=O)NC2CCN(c3ccccc3S(C)(=O)=O)CC2=O)CCCCC1` (stereo not drawn) [Example 122, 4-[N-[1-[N-(2-methyl-furan-3-ylcarbonyl)amino]cyclohexanecarbonyl]amino]-1-(2-methanesulfonylphenyl)piperidin-3-one], the figure is 3.87 nM.
With `CS(=O)(=O)c1ccccc1N1CCC(NC(=O)C2(NC(=O)c3ccc(OCCN4CCCCC4)cc3)CCCCC2)C(=O)C1` (stereo not drawn) [Example 160, 4-[N-[1-[N-(4-(2-piperidinethoxy)benzoyl)amino]cyclohexanecarbonyl]amino]-1-(2-methanesulfonylphenyl)piperidin-3-one hydrochloride], the IC50 stood at 3.14 nM.
As for `CC(=O)Nc1ccccc1N1CCC(NC(=O)C2(NC(=O)c3cc4ccccc4o3)CCCCC2)C(=O)C1` (stereo not drawn) [Example 56, 4-[N-[1-[N-(benzofuran-2-ylcarbonyl)amino]cyclohexanecarbonyl]amino]-1-[2-[N-(acetyl)amino]phenyl]piperidin-3-one], the figure is 1.62 nM.
Turning to `CC(C)[S+]([O-])c1ccccc1N1CCC(NC(=O)C2(NC(=O)c3cc4ccccc4o3)CCCCC2)C(=O)C1` (stereo not drawn) [Example 70, 4-[N-[1-[N-(benzofuran-2-ylcarbonyl)amino]cyclohexanecarbonyl]amino]-1-(2-isopropylsulfinylphenyl)piperidin-3-one], the IC50 was 1.73 nM.
As to `CS(=O)(=O)c1ccccc1N1CCC(NC(=O)C2(NC(=O)c3ccc(Cl)s3)CCCCC2)C(=O)C1` (stereo not drawn) [Example 114, 4-[N-[1-[N-(5-chloro-thiophen-2-ylcarbonyl)amino]cyclohexanecarbonyl]amino]-1-(2-methanesulfonylphenyl)piperidin-3-one], the IC50 was 1.93 nM.
Take `O=C(NC1(C(=O)NC2CCN(c3ccccc3-c3ccco3)CC2=O)CCCCC1)c1cc2ccccc2o1` (stereo not drawn) [Example 34, 4-[N-[1-[N-(benzofuran-2-ylcarbonyl)amino]cyclohexanecarbonyl]amino]-1-[2-(2-furyl)phenyl]piperidin-3-one]: the IC50 was 1.93 nM.
Next, `CS(=O)(=O)c1ccccc1N1CCC(NC(=O)C2(NC(=O)c3cc4cc(OCCN5CCCC5)ccc4o3)CCCCC2)C(=O)C1` (stereo not drawn) [Example 165, 4-[N-[1-[N-(5-(2-pyrrolidinethoxy)benzofuran-2-ylcarbonyl)amino]cyclohexanecarbonyl]amino]-1-(2-methanesulfonylphenyl)piperidin-3-one hydrochloride]: 1.63 nM; `CS(=O)(=O)c1ccccc1N1CCC(NC(=O)C2(NC(=O)c3cc4cc(OCCN5CCOCC5)ccc4o3)CCCCC2)C(=O)C1` (stereo not drawn) [Example 161, 4-[N-[1-[N-(5-(2-morpholinethoxy)benzofuran-2-ylcarbonyl)amino]cyclohexanecarbonyl]amino]-1-(2-methanesulfonylphenyl)piperidin-3-one]: 0.41 nM; `CC[S+]([O-])c1ccccc1N1CCC(NC(=O)C2(NC(=O)c3cc4ccccc4o3)CCCCC2)C(=O)C1` (stereo not drawn) [Example 69]: 1.59 nM.
Next, `O=C(CCCCl)Nc1ccccc1N1CCC(NC(=O)C2(NC(=O)c3cc4ccccc4o3)CCCCC2)C(=O)C1` (stereo not drawn) [Example 50, 4-[N-[1-[N-(benzofuran-2-ylcarbonyl)amino]cyclohexanecarbonyl]amino]-1-[2-[N-(4-chlorobutyryl)amino]phenyl]piperidin-3-one]: 1.2 nM.
Next, `CC(C)(C)OC(=O)c1ccccc1N1CCC(NC(=O)C2(NC(=O)c3cc4ccccc4s3)CCCCC2)C(=O)C1` (stereo not drawn) [Example 129, 4-[N-[1-[N-(benzothiophen-2-ylcarbonyl)amino]cyclohexanecarbonyl]amino]-1-(2-tert-butoxycarbonylphenyl)piperidin-3-one]: 0.45 nM; `O=C(CCc1ccccc1)Nc1ccccc1N1CCC(NC(=O)C2(NC(=O)c3cc4ccccc4o3)CCCCC2)C(=O)C1` (stereo not drawn) [Example 54, 4-[N-[1-[N-(benzofuran-2-ylcarbonyl)amino]cyclohexanecarbonyl]amino]-1-[2-[N-(3-phenylpropionyl)amino]phenyl]piperidin-3-one]: 6.09 nM.
`CS(=O)(=O)c1ccccc1N1CCC(NC(=O)C2(NC(=O)c3cc4cc(OCCN5CCOCC5)ccc4o3)CCCCC2)C(=O)C1` (stereo not drawn) [Example 164, 4-[N-[1-[N-(5-(2-morpholinethoxy)benzofuran-2-ylcarbonyl)amino]cyclohexanecarbonyl]amino]-1-(2-methanesulfonylphenyl)piperidin-3-one hydrochloride]: the IC50 amounted to 0.52 nM.
As for `Cc1cc(C(=O)NC2(C(=O)NC3CCN(c4ccccc4S(C)(=O)=O)CC3=O)CCCCC2)oc1C` (stereo not drawn) [Example 125, 4-[N-[1-[N-(4,5-dimethyl-furan-2-ylcarbonyl)amino]cyclohexanecarbonyl]amino]-1-(2-methanesulfonylphenyl)piperidin-3-one], the figure is 6.8 nM; as for `O=C(NC1(C(=O)NC2CCN(c3ccccc3N3CCOCC3)CC2=O)CCCCC1)c1cc2ccccc2o1` (stereo not drawn) [Example 26, 4-[N-[1-[N-(benzofuran-2-ylcarbonyl)amino]cyclohexanecarbonyl]amino]-1-[2-(4-morpholino)phenyl]piperidin-3-one], 19.9 nM.
Next, `O=C(NC1(C(=O)NC2CCN(c3ccccc3-n3cnnn3)CC2=O)CCCCC1)c1cc2ccccc2o1` (stereo not drawn) [Example 58, 4-[N-[1-[N-(benzofuran-2-ylcarbonyl)amino]cyclohexanecarbonyl]amino]-1-[2-(tetrazol-1-yl)phenyl]piperidin-3-one]: 4.82 nM; `CS(=O)(=O)c1ccccc1N1CCC(NC(=O)C2(NC(=O)c3cc4cc(OCCN5CCCC5)ccc4o3)CCCCC2)C(=O)C1` (stereo not drawn) [Example 162, 4-[N-[1-[N-(5-(2-pyrrolidinethoxy)benzofuran-2-ylcarbonyl)amino]cyclohexanecarbonyl]amino]-1-(2-methanesulfonylphenyl)piperidin-3-one]: 0.45 nM.
Next, `O=C(NC1(C(=O)NC2CCN(c3ccccc3NC(=O)C3CC3)CC2=O)CCCCC1)c1cc2ccccc2o1` (stereo not drawn) [Example 53, 4-[N-[1-[N-(benzofuran-2-ylcarbonyl)amino]cyclohexanecarbonyl]amino]-1-[2-[N-(cyclopropanecarbonyl)amino]phenyl]piperidin-3-one]: 1.22 nM; `N#Cc1c(F)cccc1N1CCC(NC(=O)C2(NC(=O)c3cc4ccccc4o3)CCCCC2)C(=O)C1` (stereo not drawn) [Example 8, 4-[N-[1-[N-(benzofuran-2-ylcarbonyl)amino]cyclohexanecarbonyl]amino]-1-(2-cyano-3-fluorophenyl)piperidin-3-one]: 10.4 nM.
Turning to `CCN(CC)c1ccc(C(=O)NC2(C(=O)NC3CCN(c4ccc(F)cc4S(C)(=O)=O)CC3=O)CCCCC2)cc1` (stereo not drawn) [Example 172, 4-[N-[1-[N-(4-(diethylamino)benzoyl)amino]cyclohexanecarbonyl]amino]-1-(4-fluoro-2-methanesulfonylphenyl)piperidin-3-one], the IC50 amounted to 0.58 nM.
